What is called IC50 is the point on the concentration scale where inhibition reaches its midpoint. Broadly, the GI50 is the concentration at which growth is held to half of that of the control.

SMILES strings stand for the structures. Bounds are passed on as bounds.

We go through 20 compounds from ChEMBL document CHEMBL4270495, “Oleanane-, ursane-, and quinone methide friedelane-type triterpenoid derivatives: Recent advances in cancer treatment” (Eur J Med Chem, 2017).

Test [1] has as its system HeLa. As to the kind of experiment: Cytotoxicity in human HeLa cells assessed as reduction in cell viability incubated for 24 hrs by MTT assay. It is filed as functional, cell-based. Background: Tetrazolium dyes change colour on reduction, which living cells bring about.
Test [2] can be described thus: Cytotoxicity in human HELF cells assessed as reduction in cell viability incubated for 24 hrs by MTT assay. It is filed as cell-based.
Test [3] has as its system HepG2. As to the kind of experiment: Cytotoxicity in human HepG2 cells assessed as reduction in cell viability incubated for 24 hrs by MTT assay. It is filed as functional, cell-based. Conditions: HepG2, 24 h.
The subject of test [4] is H9c2. Put plainly: Cytotoxicity in rat H9c2 cells assessed as reduction in cell viability incubated for 72 hrs by MTT assay. It is filed as cell-based. The note with it: H9c2, 72 h.
The subject of test [5] is HT-29. Put plainly: Cytotoxicity in human HT-29 cells assessed as reduction in cell viability incubated for 72 hrs by MTT assay. It is filed as functional, cell-based. Conditions: HT-29, 72 h.
The test system of test [6] is HepG2. Put plainly: Cytotoxicity in human HepG2 cells assessed as reduction in cell viability incubated for 72 hrs by MTT assay. The note with it: HepG2, 72 h. It is filed as functional, cell-based.
In test [7] the test system is EA.hy 926. As to the kind of experiment: Cytotoxicity in human EAhy926 cells assessed as reduction in cell viability incubated for 72 hrs by MTT assay. It is filed as cell-based. Conditions: EA.hy 926, 72 h.
Test [8] has as its system HeLa. Put plainly: Cytotoxicity in human HeLa cells assessed as reduction in cell viability incubated for 72 hrs by MTT assay. It is filed as functional, cell-based.
Test [9] deals with MDCK. As to the kind of experiment: Cytotoxicity in canine MDCK cells assessed as reduction in cell viability incubated for 72 hrs by MTT assay. It is filed as cell-based. The note with it: Canis lupus familiaris.
Test [10] relates to MDA-MB-231. As to the kind of experiment: Cytotoxicity in human MDA-MB-231 cells assessed as reduction in cell viability incubated for 48 hrs by SRB assay. The note with it: MDA-MB-231, 48 h. It is filed as functional. A general note: In SRB staining, fixed cells bind dye roughly in proportion to their protein.
Test [11] has as its system MCF7. Put plainly: Cytotoxicity in human MCF7 cells assessed as reduction in cell viability incubated for 48 hrs by SRB assay. It is filed as functional, cell-based. The note with it: MCF7, 48 h.
The test system of test [12] is TERT-RPE1. Put plainly: Cytotoxicity in human hTERT-RPE1 cells assessed as reduction in cell viability incubated for 24 hrs by MTT assay. It is filed as functional, cell-based. The note with it: RPE-1, 24 h.
Test [13] deals with MCF7. As to the kind of experiment: Cytotoxicity in human MCF7 cells assessed as reduction in cell viability incubated for 24 hrs by MTT assay. Conditions: MCF7, 24 h. It is filed as functional, cell-based.

Turning to `CC(=O)O[C@H]1CC[C@]2(C)[C@H]3CC=C4[C@@H]5[C@@H](C)[C@H](C)CC[C@]5(C(=O)N5CCNCC5)CC[C@@]4(C)[C@]3(C)CC[C@H]2C1(C)C`, the IC50 was determined as 7 µM in test [1], 9.1 µM in [2] and 4.8 µM in test [3].

With `COc1cc(/C=C/C(=O)O[C@H]2CC[C@]3(C)[C@H]4C(=O)C=C5[C@H]6C[C@@](C)(C(=O)O)CC[C@]6(C)CC[C@@]5(C)[C@]4(C)CC[C@H]3C2(C)C)cc(OC)c1OC`, the IC50 in [4] is 47.4 µM; in [5], 25.5 µM; in test [6], 21.9 µM; in test [7], 30.8 µM; in test [8], 30.7 µM; in test [9], 27.7 µM.

Regarding `COc1ccc(OC)c(/C=C/C(=O)O[C@H]2CC[C@]3(C)[C@H]4C(=O)C=C5[C@H]6C[C@@](C)(C(=O)O)CC[C@]6(C)CC[C@@]5(C)[C@]4(C)CC[C@H]3C2(C)C)c1`, the IC50 in [4] is greater than 50 µM; in test [5] it was 26.4 µM; in [6], 25.4 µM; in test [7], 45.1 µM; in [8] it was 28 µM; in [9], greater than 50 µM.

Turning to `COc1ccccc1/C=C/C(=O)O[C@H]1CC[C@]2(C)[C@H]3C(=O)C=C4[C@H]5C[C@@](C)(C(=O)O)CC[C@]5(C)CC[C@@]4(C)[C@]3(C)CC[C@H]2C1(C)C`, the IC50 in test [4] was greater than 50 µM; in [5], 22.2 µM; in test [6], 32 µM; in test [7], greater than 50 µM; in [8], 24.6 µM; in test [9], 22.9 µM.

Regarding `C[C@H]1[C@H](C)CC[C@]2(C(=O)OCCCn3cc(COC(=O)[C@]45CC[C@@H](C)[C@H](C)[C@@H]4C4=CC[C@@H]6[C@@]7(C)CC[C@H](O)[C@](C)(CO)[C@@H]7CC[C@]6(C)[C@]4(C)CC5)cn3)CC[C@]3(C)C(=CC[C@@H]4[C@@]5(C)CC[C@H](O)C(C)(C)[C@@H]5CC[C@]43C)[C@H]12`, the GI50 in [10] came to 4.5 µM; in [11], 12.1 µM.

For the compound `COc1cccc(/C=C/C(=O)O[C@H]2CC[C@]3(C)[C@H]4C(=O)C=C5[C@H]6C[C@@](C)(C(=O)O)CC[C@]6(C)CC[C@@]5(C)[C@]4(C)CC[C@H]3C2(C)C)c1`, the IC50 in test [4] was greater than 50 µM; in test [5] it was 14.9 µM; in [6], 12.7 µM; in test [7], 31 µM; in test [8], 17.5 µM; in test [9] it was 22.2 µM.

`C[C@H]1[C@H](C)CC[C@]2(C(=O)N3CCNCC3)CC[C@]3(C)C(=CC[C@@H]4[C@@]5(C)CC[C@H](O)C(C)(C)[C@@H]5CC[C@]43C)[C@H]12`: the figures for the IC50 in test [1], in test [2] and in test [3] were 14.4 µM, 12.6 µM and 5.1 µM, respectively.

Consider `CC1(C)[C@@H](OC(=O)/C=C/c2ccccc2)CC[C@]2(C)[C@H]3C(=O)C=C4[C@H]5C[C@@](C)(C(=O)O)CC[C@]5(C)CC[C@@]4(C)[C@]3(C)CC[C@@H]12`, for which the IC50 in test [4] amounted to 46.1 µM; in test [5] it was 22.3 µM; in [6] it was 24.4 µM; in test [7], 28.9 µM; in test [8], 23.7 µM; in [9], 22.6 µM.

On to `C[C@H]1[C@H](C)CC[C@]2(C(=O)OCCCn3cc(COC(=O)[C@]45CC[C@@H](C)[C@H](C)[C@@H]4C4=CC[C@@H]6[C@@]7(C)C[C@H](O)[C@H](O)[C@](C)(CO)[C@@H]7CC[C@]6(C)[C@]4(C)CC5)cn3)CC[C@]3(C)C(=CC[C@@H]4[C@@]5(C)CC[C@H](O)C(C)(C)[C@@H]5CC[C@]43C)[C@H]12`, for which the GI50 was found to be 7.4 µM in test [10] and 12.8 µM in test [11].

In the case of `C[C@H]1[C@H](C)CC[C@]2(C(=O)OCCCn3cc(COC(=O)[C@]45CC[C@@H](C)[C@H](C)[C@@H]4C4=CC[C@@H]6[C@@]7(C)CC[C@H](O)C(C)(C)[C@@H]7CC[C@]6(C)[C@]4(C)CC5)cn3)CC[C@]3(C)C(=CC[C@@H]4[C@@]5(C)CC[C@H](O)C(C)(C)[C@@H]5CC[C@]43C)[C@H]12`, the GI50 in test [10] is 3.8 µM; in test [11], 12.7 µM.

For `COc1cccc(/C=C/C(=O)O[C@H]2CC[C@]3(C)[C@H]4C(=O)C=C5[C@H]6C[C@@](C)(C(=O)O)CC[C@]6(C)CC[C@@]5(C)[C@]4(C)CC[C@H]3C2(C)C)c1OC`, the IC50 was greater than 50 µM in [4]; 24.4 µM in test [5]; 24.4 µM in test [6]; 25 µM in [7]; 22.5 µM in [8]; 33.7 µM in [9].

On to `COc1ccc(/C=C/C(=O)O[C@H]2CC[C@]3(C)[C@H]4C(=O)C=C5[C@H]6C[C@@](C)(C(=O)O)CC[C@]6(C)CC[C@@]5(C)[C@]4(C)CC[C@H]3C2(C)C)cc1`, for which the IC50 was 36.1 µM in test [4]; 33 µM in test [5]; 31.2 µM in test [6]; greater than 50 µM in test [7]; 23.4 µM in [8]; 21.7 µM in [9].

`C=C(C)[C@@H]1CC[C@]2(C(=O)OCc3cnn(CCCOC(=O)[C@]45CC[C@@H](C)[C@H](C)[C@H]4C4=CC[C@@H]6[C@@]7(C)CC[C@H](O)C(C)(C)[C@@H]7CC[C@@]6(C)[C@]4(C)CC5)c3)CC[C@]3(C)[C@H](CC[C@@H]4[C@@]5(C)CC[C@H](O)C(C)(C)[C@@H]5CC[C@]43C)[C@@H]12`: the figures for the GI50 in test [10] and in [11] were 1.4 µM and 14.4 µM, respectively.

Consider `Cc1ccc(/C=C/C(=O)O[C@H]2CC[C@]3(C)[C@H]4C(=O)C=C5[C@H]6C[C@@](C)(C(=O)O)CC[C@]6(C)CC[C@@]5(C)[C@]4(C)CC[C@H]3C2(C)C)cc1`, for which the IC50 in [4] was greater than 50 µM; in [5] it was 21.7 µM; in [6] it was 22.1 µM; in test [7], 27.6 µM; in test [8] it was 14.2 µM; in [9], 38 µM.

Take `C[C@H]1[C@H](C)CC[C@]2(C(=O)OCCCn3cc(COC(=O)[C@]45CC[C@@H](C)[C@H](C)[C@@H]4C4=CC[C@@H]6[C@@]7(C)C[C@H](O)[C@H](O)C(C)(C)[C@@H]7CC[C@]6(C)[C@]4(C)CC5)cn3)CC[C@]3(C)C(=CC[C@@H]4[C@@]5(C)CC[C@H](O)C(C)(C)[C@@H]5CC[C@]43C)[C@H]12`: the GI50 amounted to 4.7 µM in [10] and 12 µM in [11].

For `COc1ccc(/C=C/C(=O)O[C@H]2CC[C@]3(C)[C@H]4C(=O)C=C5[C@H]6C[C@@](C)(C(=O)O)CC[C@]6(C)CC[C@@]5(C)[C@]4(C)CC[C@H]3C2(C)C)c(OC)c1OC`, the IC50 was greater than 50 µM in test [4]; 15 µM in test [5]; 21.5 µM in test [6]; 27.7 µM in [7]; 8.54 µM in [8]; 31.8 µM in [9].

Regarding `CC(=O)O[C@H]1CC[C@]2(C)[C@H]3CC=C4[C@@H]5[C@@H](C)[C@H](C)CC[C@]5(C(=O)N5CCNCC5C)CC[C@@]4(C)[C@]3(C)CC[C@H]2C1(C)C` (stereo partly specified), the IC50 in test [1] stood at 6.3 µM; in test [2], 14.8 µM; in test [3] it was 5.2 µM.

On to `C=C(C)[C@@H]1CC[C@]2(C(=O)O)CC[C@]3(C)[C@H](CC[C@@H]4[C@@]5(C)CC[C@H](O)C(C)(C)[C@@H]5CC[C@]43C)[C@@H]12` [BETULINIC ACID], for which the GI50 in test [10] amounted to 22.9 µM; in test [11], 11.3 µM.

For `C[C@H]1[C@H](C)CC[C@]2(C(=O)O)CC[C@]3(C)C(=CC[C@@H]4[C@@]5(C)C[C@@H](O)[C@H](O)C(C)(C)[C@@H]5CC[C@]43C)[C@H]12` [COROSOLIC ACID], the concentration for 50% growth inhibition (GI50) in [10] worked out at 15.3 µM; in test [11], 18.5 µM.

In the case of `COc1cccc2c1C(=O)c1c(O)c3c(c(O)c1C2=O)C[C@@](O)(C(=O)CO)C[C@@H]3O[C@H]1C[C@H](N)[C@H](O)[C@H](C)O1` [DOXORUBICIN], the GI50 in test [10] came out at 4.1 µM; in test [11], 5.7 µM. Moreover, the values for the IC50 in [12] and in test [13] were 2.76 µM and 0.49 µM, respectively.
